Test results from paper PMC7118841 (Biomedicine & Pharmacotherapy, 2006).

Tested on: FluV
Conditions: given either orally or intraperitoneally; cited from earlier work

Q: With Ce2H[BW11Mn(H2O)O39] [HPB-2] as the substance, how does the “therapeutic effect against FluV infection in mice” value read?
A: The value was “potent therapeutic effect”.

Tested on: RSV-A
Conditions: cited from earlier work

Q: What does the source list for [K10Fe4(H2O)2 (PW9O34)2]nH2O [HS-058]?
A: Inhibition of RNA and protein synthesis: Probably no; Inhibition of fusion of virus envelope and cell membrane: Unclear

Tested on: FluV
Conditions: data not shown; cited from earlier work

Q: With [K10Fe4(H2O)2 (PW9O34)2]nH2O [HS-058] as the substance, how does the “concentration inhibiting hemolysis of chicken erythrocytes by FluV” value read?
A: The value was 58 µM.

Tested on: FIPV
Type: cell-based, feline infectious peritonitis virus
Conditions: read-out: EC50, FIPV

Q: Which EC50 does the source give for “(NBu4)4(PriNH3) [PTi2W10O38(O2)2]2H2O [PM-803]” here?
A: Its EC50 is over 21 µM.

Q: Which EC50 does the source give for K9H6(Ge2Ti6W18O77)16H2O [PM-504] here?
A: Its EC50 is 0.4 ± 0.3 µM.

Q: For K10Na[(VO)3(SbW9O33)2]26H2O [PM-1001], which EC50 is on record?
A: Its EC50 is 0.2 ± 0.1 µM.

Q: Which EC50 does the source give for K12[(VO)3(AsW9O33)2]12H2O [PM-1207] here?
A: Its EC50 is 0.09 ± 0.04 µM.

Q: Which EC50 does the source give for K12[(VO)3(BiW9O33)2]29H2O [PM-1208] here?
A: The EC50 was over 3.6 µM.

Q: Which EC50 does the source give for K12[(VO)3(PW9O34)2]nH2O [PM-1213] here?
A: Its EC50 is over 10.5 µM.

Q: With “Na7H9{Eu3O(OH)3(H2O)3}2Al2(Nb6O19)5}47H2O [PM-802]” as the substance, how does the EC50 read?
A: Its EC50 is 0.03 ± 0.01 µM.

Tested on: PfluV 2
Conditions: read-out: EC50, PfluV 2; MTT method; cited from earlier work

Q: Which EC50 does the source give for K10Na[(VO)3(SbW9O33)2]26H2O [PM-1001] here?
A: The EC50 was 1.1 ± 0.9 µM.

Tested on: gp-120
Conditions: polyclonal mouse antibody; cited from earlier work

Q: For K10Na[(VO)3(SbW9O33)2]26H2O [PM-1001], which “inhibition of binding of anti-gp120 antibody to gp-120” value is on record?
A: Its value is “inhibited”.

Tested on: RSV
Conditions: HeLa cells; compound after virus adsorption; cited from earlier work

Q: For [K10Fe4(H2O)2 (PW9O34)2]nH2O [HS-058], which “concentration inhibiting syncytium formation of RSV” value is on record?
A: The value was 8.5 µM.

Tested on: syncytium formation between MOLT-4 cells (uninfected cells) and MOLT-4/IIIb cells (infected cells)
Conditions: MOLT-4 and MOLT-4/IIIb cells; cited from earlier work

Q: For K10Na[(VO)3(SbW9O33)2]26H2O [PM-1001], which “inhibition of syncytium formation” value is on record?
A: The value was “inhibited syncytium formation”.

Tested on: RSV-B (SM-61-48)
Conditions: read-out: EC50, RSV-B (SM-61-48); MTT method; data from one experiment; cited from earlier work

Q: Which EC50 does the source give for [K10Fe4(H2O)2 (PW9O34)2]nH2O [HS-058] here?
A: Its EC50 is 3.1 µM.

Tested on: HIV
Conditions: read-out: EC50, anti-HIV, MAGI test; HeLa CD4/LTR-β-Gal cells; cited from earlier work

Q: For K10Na[(VO)3(SbW9O33)2]26H2O [PM-1001], which EC50 is on record?
A: Its EC50 is 0.01 µM.

Tested on: RSV
Conditions: read-out: EC50, RSV; MTT method; cited from earlier work

Q: Which EC50 does the source give for K10Na[(VO)3(SbW9O33)2]26H2O [PM-1001] here?
A: Its EC50 is under 0.16 µM.

Tested on: CD4
Conditions: mouse antibody; cited from earlier work

Q: For K10Na[(VO)3(SbW9O33)2]26H2O [PM-1001], which “inhibition of binding of anti-CD4 antibody to its target molecule” value is on record?
A: The value was “did not inhibit”.

Tested on: FluV A
Conditions: read-out: EC50, FluV A; MTT method; cited from earlier work

Q: For K10Na[(VO)3(SbW9O33)2]26H2O [PM-1001], which EC50 is on record?
A: The EC50 was 1.75 ± 1.6 µM.

Tested on: HIV-1
Conditions: read-out: EC50, HIV-1; MTT method; cited from earlier work

Q: With K10Na[(VO)3(SbW9O33)2]26H2O [PM-1001] as the substance, how does the EC50 read?
A: The EC50 was 0.14 ± 0.17 µM.

Tested on: Vero
Conditions: read-out: IC50, cytotoxicity Vero; MTT method; cited from earlier work

Q: For [K10Fe4(H2O)2 (PW9O34)2]nH2O [HS-058], which IC50 is on record?
A: Its IC50 is 50 µM.

Tested on: HMV-2
Conditions: read-out: IC50, cytotoxicity HMV-2; MTT method; cited from earlier work

Q: With [K10Fe4(H2O)2 (PW9O34)2]nH2O [HS-058] as the substance, how does the IC50 read?
A: Its IC50 is 50 µM.

Tested on: SARS-V
Type: cell-based, SARS coronavirus
Conditions: read-out: EC50, SARS-V

Q: With K9H6(Ge2Ti6W18O77)16H2O [PM-504] as the substance, how does the EC50 read?
A: Its EC50 is 3.5 ± 2.4 µM.

Q: For K10Na[(VO)3(SbW9O33)2]26H2O [PM-1001], which EC50 is on record?
A: The EC50 was 0.7 ± 0.4 µM.

Q: With K12[(VO)3(AsW9O33)2]12H2O [PM-1207] as the substance, how does the EC50 read?
A: Its EC50 is 0.9 ± 0.24 µM.

Q: For K12[(VO)3(BiW9O33)2]29H2O [PM-1208], which EC50 is on record?
A: The EC50 was 2.7 ± 0.6 µM.

Q: For K12[(VO)3(PW9O34)2]nH2O [PM-1213], which EC50 is on record?
A: The EC50 was 0.47 ± 0.14 µM.

Q: For “Na7H9{Eu3O(OH)3(H2O)3}2Al2(Nb6O19)5}47H2O [PM-802]”, which EC50 is on record?
A: Its EC50 is over 50 µM.

Tested on: HEp-2
Conditions: read-out: IC50, cytotoxicity HEp-2; MTT method; cited from earlier work

Q: For [K10Fe4(H2O)2 (PW9O34)2]nH2O [HS-058], which IC50 is on record?
A: Its IC50 is over 200 µM.

Tested on: FluV-A
Conditions: cited from earlier work

Q: For [K10Fe4(H2O)2 (PW9O34)2]nH2O [HS-058], which “Inhibition of RNA and protein synthesis” value is on record?
A: The value was “Probably no”.

Q: And the “Inhibition of fusion between infected and uninfected cells” value?
A: Its value is “Unclear”.

Tested on: CXCR4
Conditions: monoclonal mouse antibody; cited from earlier work

Q: For K10Na[(VO)3(SbW9O33)2]26H2O [PM-1001], which “inhibition of binding of anti-CRCX4 antibody to its target molecule” value is on record?
A: The value was “did not inhibit”.

Tested on: FluV A
Conditions: read-out: EC50 against FluV A; cited from earlier work

Q: With K9H6(Ge2Ti6W18O77)16H2O [PM-504] as the substance, how does the EC50 read?
A: The EC50 was 1.3 µM.

Tested on: FluV-A
Conditions: read-out: EC50 against FluV-A; compound present 1.5–3 hours; cited from earlier work

Q: For [K10Fe4(H2O)2 (PW9O34)2]nH2O [HS-058], which EC50 is on record?
A: Its EC50 is over 31 µM.

Tested on: CDV
Conditions: read-out: EC50, CDV; plaque reduction method; cited from earlier work

Q: Which EC50 does the source give for K10Na[(VO)3(SbW9O33)2]26H2O [PM-1001] here?
A: Its EC50 is 5.7 ± 0.5 µM.

Tested on: RSV-A
Conditions: read-out: EC50 against RSV-A; compound present 1.5–3 hours; cited from earlier work

Q: Which EC50 does the source give for [K10Fe4(H2O)2 (PW9O34)2]nH2O [HS-058] here?
A: The EC50 was over 20 µM.

Tested on: FluV A binding to MDCK cells
Conditions: 8–200 μM of compound during 1.5 hour incubation at 37 °C, moi 1; cited from earlier work

Q: For K9H6(Ge2Ti6W18O77)16H2O [PM-504], which “inhibition of the binding of FluV to MDCK cells (FACS)” value is on record?
A: The value was “inhibited the binding”.

Tested on: MDCK
Conditions: read-out: IC50, cytotoxicity MDCK; MTT method; cited from earlier work

Q: For [K10Fe4(H2O)2 (PW9O34)2]nH2O [HS-058], which IC50 is on record?
A: Its IC50 is over 200 µM.

Tested on: TGEV
Type: cell-based, transmissible gastroenteritis virus of swine
Conditions: read-out: EC50, TGEV

Q: Which EC50 does the source give for “(NBu4)4(PriNH3) [PTi2W10O38(O2)2]2H2O [PM-803]” here?
A: The EC50 was 0.34 ± 0.3 µM.

Q: With K9H6(Ge2Ti6W18O77)16H2O [PM-504] as the substance, how does the EC50 read?
A: The EC50 was 1.4 ± 0.5 µM.

Q: Which EC50 does the source give for K10Na[(VO)3(SbW9O33)2]26H2O [PM-1001] here?
A: Its EC50 is 0.14 ± 0.1 µM.

Q: Which EC50 does the source give for K12[(VO)3(AsW9O33)2]12H2O [PM-1207] here?
A: The EC50 was 1.9 ± 1.4 µM.

Q: For K12[(VO)3(BiW9O33)2]29H2O [PM-1208], which EC50 is on record?
A: Its EC50 is 2 ± 1.8 µM.

Q: For K12[(VO)3(PW9O34)2]nH2O [PM-1213], which EC50 is on record?
A: The EC50 was 1.7 ± 1 µM.

Q: With “Na7H9{Eu3O(OH)3(H2O)3}2Al2(Nb6O19)5}47H2O [PM-802]” as the substance, how does the EC50 read?
A: The EC50 was 0.5 ± 0.5 µM.
